Source: patent publication US20170368018A1, “USE OF ELLAGIC ACID DIHYDRATE IN PHARMACEUTICAL FORMULATIONS TO REGULATE BLOOD GLUCOSE LEVELS” (HALO LIFE SCIENCE, LLC, priority 2014, published 2017)

Columns and labels:
[1] = system: p44/42 MAPK / Phos p44/42 MAPK in C2C12 cells; assay: p44/42 MAPK:phos p44/42 MAPK ratio by immunocytochemistry, high-content imaging; format: cell-based, mouse; conditions: C2C12, treated 30 minutes, 0.04 nM, FIG. 9
Protocol: (§1) Stimulation of AKT pathways and MAPK pathways in ellagic acid dihydrate, metformin, and insulin treated cell cultures was performed. Insulin stimulates glucose uptake into cells by increasing GLUT4 activation, and AKT, specifically phos-AKT, signaling alters GLUT4 translocation. […] Cellular assays were performed using mouse myoblast C2C12 cells. Relative protein levels of AKT:phos AKT and p44/42 MAPK:phos p44/42 MAPK were determined.
Serum starved cells (1 hr) were treated for 30 minutes with each of the tested compounds. Ratios of phosphorylated to non-phosphorylated proteins were determined using immunocytochemistry labeling (anti-AKT, anti-Phos AKT; or anti-p44/42 MAPK, anti-Phos p44/42 MAPK) on a high-content imaging system (Operetta, Perkin Elmer) using the fluorescent signal of anti-rabbit Alexa 647. Increased phosphorylation is indicated as decrease in signal of AKT:Phos AKT ratio (log2 scale) and p44/42 MAPK:Phos p44/42 MAPK ratio (log2 scale) relative to vehicle treated cells.

[2] = system: AKT / Phos AKT in C2C12 cells; assay: AKT:phos AKT ratio by immunocytochemistry, high-content imaging; format: cell-based, mouse; conditions: C2C12, serum starved 1 hr, treated 30 minutes, 4 nM-4 μM, FIG. 8
Protocol: as §1, with “[…] Serum starved cells (1 hr) were treated for 30 minutes with each” for “Relative protein levels”, “the tested compounds.” for “AKT:phos AKT and p44/42 MAPK:phos p44/42 MAPK were determined.”

[3] = system: mouse myoblast C2C12 cells; assay: Glucose uptake, 2-NBDG labeling, flow cytometry, C2C12; format: cell-based
Protocol: Cellular assays were performed using mouse myoblast C2C12 cells and MEF cells. […] Increased glucose uptake was indicated as increasing signal of 2-NBDG ([…]) in cells. Glucose uptake assays were carried out in a final incubation volume of 50 μl consisting of, 2-NBDG), (100 μM) in 1× Phosphate Buffered Saline w/Ca+, Mg+ (PBS++). The same buffer was used for washing cells. Insulin was used as a positive control. All testing compounds were prepared in 10% DMSO and diluted 1:100 for a final concentration of 0.1% DMSO (vehicle). Cells were culture to 70-90% confluence and then washed twice with PBS++. Cells were incubated for 30 minutes at 37° C. in PBS++. Nuclear stain, HCS CellMask stain (blue, Invitrogen), and/or testing compounds (ellagic acid dihydrate, insulin, or vehicle) were added. Cells were incubated for 30 min at 37° C. Cells were washed twice with PBS++and incubated with 2-NBDG for 10 minutes. Cells were washed thrice with PBS++and then imaged in PBS++. Alternatively, the final PBS wash was removed and cells were incubated with Accutase (Invitrogen) for 10 min at 37° C., neutralized with 10% FBS in 1× PBS, and analyzed by flow cytometry. An additional experiment was performed to measure glucose uptake in C2C12 cells exposed to metformin, insulin and ellagic acid dihydrate 2 (batch 2). FIG. 5C.

[4] = system: MEF cells; assay: Glucose uptake, 2-NBDG labeling, high-content imaging (Operetta), MEFs; format: cell-based, mouse
Protocol: (§2) Increased glucose uptake was indicated as increasing signal of 2-NBDG ([…]) in cells. Glucose uptake assays were carried out in a final incubation volume of 50 μl consisting of, 2-NBDG), (100 μM) in 1× Phosphate Buffered Saline w/Ca+, Mg+ (PBS++). The same buffer was used for washing cells. Insulin was used as a positive control. All testing compounds were prepared in 10% DMSO and diluted 1:100 for a final concentration of 0.1% DMSO (vehicle). Cells were culture to 70-90% confluence and then washed twice with PBS++. Cells were incubated for 30 minutes at 37° C. in PBS++. Nuclear stain, HCS CellMask stain (blue, Invitrogen), and/or testing compounds (ellagic acid dihydrate, insulin, or vehicle) were added. Cells were incubated for 30 min at 37° C. Cells were washed twice with PBS++and incubated with 2-NBDG for 10 minutes. Cells were washed thrice with PBS++and then imaged in PBS++. Alternatively, the final PBS wash was removed and cells were incubated with Accutase (Invitrogen) for 10 min at 37° C., neutralized with 10% FBS in 1× PBS, and analyzed by flow cytometry. An additional experiment was performed to measure glucose uptake in C2C12 cells exposed to metformin, insulin and ellagic acid dihydrate 2 (batch 2). FIG. 5C. Glucose uptake in ellagic acid dihydrate treated cell culture was measured and compared to glucose uptake under insulin or ellagic acid treatment. […] Flow cytometry results were run in triplicate with 1000 cells per batch.

[5] = system: MEF cells; assay: Glucose uptake, 2-NBDG labeling, flow cytometry, MEFs; format: cell-based, mouse
Protocol: as §2, with “Cellular assays were performed using mouse myoblast C2C12 cells and MEF cells. […] Increased” for “Increased”

[6] = system: GLUT4-GFP in mouse myoblast C2C12 cells; assay: Localization of glucose transporter GLUT4-GFP, time-lapse confocal microscopy; format: cell-based; conditions: C2C12, 4000 nM
Protocol: Induction of glucose transporter, GLUT-4, in ellagic acid dihydrate treated cell cultures was studied. Cellular assays were performed using mouse myoblast C2C12 cells. The cells were infected with a fusion glucose transporter 4 green fluorescent protein (GLUT4-GFP). This protein allows the visualization of GLUT4 by imaging the GFP under fluorescent time-lapse microscopy. Frames were compiled to produce time-lapse images of cellular changes with no treatment or treatment with insulin. The localization of glucose transporter (GLUT4-GFP) was performed in final incubation volume of 505 μL, consisting of 500 μL of Hank's Buffer (Invitrogen) and 5 μl of tested compounds. Insulin was used as positive controls and vehicle (0.1% DMSO) as the negative control. All test compounds were prepared in 10% DMSO and diluted 1:100 for a final concentration of 0.1% DMSO (vehicle). The cells were rinsed in Hank's Buffer thrice and then incubated in Hank's Buffer at 37° C. for one hour. The test compounds were added (ellagic acid dihydrate, insulin, or vehicle) and the cells were imaged using laser-confocal microscopy (Leica TCS SP5 X) with FITC fluorescent filters to determine changes in GLUT4-GFP localization. Time-lapse images (TIF) were collected and post-processed using Image-J (NIH) for video construction.

[7] = system: female SWV mice; assay: Weight loss and blood glucose in mice, thirty days daily gavage; format: in vivo, mouse; conditions: for body weight lost on average: supplemental pill, gavage daily
Protocol: Weight loss and blood glucose in mice treated with ellagic acid was determined and weight loss and blood glucose in mice treated with ellagic acid dihydrate may be determined by the following procedure. Mice are treated daily for thirty days with ellagic acid or control in the form of a supplemental pill homogenized and suspended in 25% water solution of Cremophor EL. The mice are treated via gavage using the human equivalent dose (LD) of 122.4 mg pill/kg of subject (40.6 mg ellagic acid/kg of the subject), 10× higher dose (HD) of 1224 mg pill/kg of the subject (406 mg ellagic acid/kg of the subject), or control vehicle (25% water solution of Cremophor EL). The LD and HD dose amounts are calculated based on the following assumptions: a human dose is one 603 mg (200 mg ellagic acid) pill/day, taken orally; the average weight of a person is 60 kg, thus, the average dose for a human equals approximately 9.95 mg of the pill (3.3 mg ellagic acid)/kg daily; a mouse equivalent dose requires 12.3 times the human dose per kg. The mice are weighed and treated daily, and blood glucose level are measured every two days for a total one month period.

[8] = system: mice; assay: Activity level in mice; format: in vivo, mouse; conditions: observation by the Applicant in treated mice
Description: Activity levels in mice treated with ellagic acid dihydrate may be quantified by several procedures, such as those outlined in Turri, M. et al.; QTL Analysis Identifies Multiple Behavioral Dimensions in Ethological Tests of Anxiety in Laboratory Mice; Current Biology; 2001; 11(10): 725-734. Two examples of procedures taught therein follows. Gross Locomotor Activity in Home Cage: Mice are caged singly several days prior to home cage activity monitoring and subsequent testing. Activity in home cages are measured during the first 2 hours of the dark cycle on two consecutive days. Two infrared photo emitter-detector pairs, located outside the clear plastic home cage that divide the cage into three equal areas, are used to record gross locomotor activity on the floor of the home cage as the animal breaks the photo beams. The beam-break activity score consists of the square root of the number of beam breaks for each detector summed across the two test days. Magnitude of Activity in Home Cage: Mice are caged singly several days prior to home cage activity monitoring and subsequent testing. Activity in home cages are measured during the first 2 hours of the dark cycle on two consecutive days. An infrared motion detector located above the top of the home cage is employed to converts all motion sensed within the home cage into arbitrary units, based on the magnitude of activity detected.

[9] = system: female SWV mice with STZ induced diabetes; assay: Weight loss and blood glucose in mice with STZ induced diabetes; format: in vivo, mouse; conditions: STZ diabetic mice, thirty days
Protocol: Weight loss and blood glucose in diabetes induced mice treated with ellagic acid was determined and weight loss and blood glucose in mice treated with ellagic acid dihydrate may be determined by the following procedures. Induction of Diabetes: Diabetes is induced in mice by intraperitoneal injection with Streptozotocin (STZ 40 mg/kg) daily for five days. The mice are considered hyperglycemic when the glucose level of each dam is above 200 mg/dL. The mice are fasted for 4 hours before STZ injection and glucose measurement. Treatment: The mice are treated daily for thirty days with ellagic acid or control in the form of a supplemental pill homogenized and suspended in 25% water solution of Cremophor EL. The mice are treated for one month via gavage using the human equivalent dose of 122.4 mg pill/kg of subject (40.6 mg ellagic acid/kg of the subject), the human equivalent does of 40.6 mg ellagic acid/kg of the subject using 98% pure ellagic acid, or control vehicle (25% water solution of Cremophor EL). The human equivalent dose is calculated as described in Example 8. Treatments would start two weeks after the last STZ injection in which hyperglycemia is confirmed in the diabetic mice. The mice would be weighed daily and glucose levels would be measured in fasted animals every five days.

CN(C)C(=N)N=C(N)N [metformin]
p44/42 MAPK:Phos p44/42 MAPK ratio relative to vehicle treated cells [1]: increased the ratio of p44/42 MAPK | AKT:Phos AKT ratio (log2 scale) relative to vehicle treated cells [2]: increase in AKT relative to phosphorylation of AKT

insulin: Insulin was used as a positive control [reference compound]
increase in glucose uptake in myoblasts relative to fibroblasts ([3]; C2C12 (FIGS. 5A, 5B) versus MEFs (FIGS. 4A, 4B)): ~4 × | dose effect for increasing glucose uptake ([3]; C2C12, flow cytometry, 4 μM-0.04 nM): showed a dose effect | glucose uptake (2-NBDG signal) relative to vehicle ([3]; C2C12, flow cytometry, FIG. 5A): significant increase | dose effect for increasing glucose uptake [4]: showed a dose effect | glucose uptake (signal of 2-NBDG) in comparison to vehicle [4]: showed an increase in glucose uptake | p44/42 MAPK:Phos p44/42 MAPK ratio relative to vehicle treated cells ([1]; 400 nM): increase in p44/42 MAPK | increased glucose uptake relative to vehicle treated cells ([5]; 400 nM exposure, fibroblasts, FIG. 4B): 32% | dose effect for increasing glucose uptake ([5]; MEFs, flow cytometry, 4 μM-0.04 nM): showed a dose effect | glucose uptake (2-NBDG signal) relative to vehicle ([5]; MEFs, flow cytometry, FIG. 4A): significant increase | GLUT4-GFP around the cell nucleus [6]: decrease in GLUT4-GFP around the cell nucleus | ruffling of filopodia at the surface of the cell [6]: rapid production of numerous projections | AKT:Phos AKT ratio (log2 scale) relative to vehicle treated cells [2]: −0.5

O=c1oc2c(O)c(O)cc3c(=O)oc4c(O)c(O)cc1c4c23 [ellagic acid]
dose effect for increasing glucose uptake [4]: no such dose effect | glucose uptake per unit dose ([5]; in vitro conditions, summary statement): little to no glucose uptake per unit dose | blood glucose ([7]; all treatments (LD, HD) compared to control): Normal levels of blood glucose | body weight lost on average ([7]; 10× higher dose (HD, 406 mg ellagic acid/kg)): 10.4 % of body weight | body weight lost on average ([7]; human equivalent dose (LD, 40.6 mg ellagic acid/kg)): 8.9 % of body weight | activity levels [8]: increased activity levels | body weight lost on average ([9]; human equivalent dose, daily): 11.7 % of body weight | mean glucose level values, treated versus control mice [9]: no significant differences
